Source: patent publication US9808530B2, “Composition of tiacumicin compounds” (Astellas Pharma Europe Ltd., priority 2013, dated 2017)

Assays:
[1] = Foaming property of fidaxomicin suspensions in water (tube shaken, foaming checked); type: physicochemical; settings: 400 mg fidaxomicin in 10 mL distilled water; immediately after preparation and 1 hour after preparation
Protocol: To 400 mg of fidaxomicin was added 10 mL of distilled water in a tube. The mixture was shaken and allowed to stand.
Hydroxypropylcellulose (HPC-L (middle viscosity grade) and HPC-SSL (low viscosity grade) respectively), in a concentration of 0.3 and 0.6 w/v % respectively, was added to 5 mL of distilled water in a tube which contained 0 and 200 mg respectively of fidaxomicin. Each mixture was shaken and allowed to stand.
Xanthan gum in a concentration of 0.2% w/v was added to 5 mL of distilled water in a tube, which contained 0 and 200 mg respectively of fidaxomicin. Each mixture was shaken and allowed to stand.
An amount of the granulate corresponding to 200 mg fidaxomicin was weighed into a tube and 5 ml, of water was added. The tube was vigorously shaken for about 1 min. Foaming of the suspension was not observed.
An amount of each of the granulates OS-5-OS-9, corresponding to 200 mg fidaxomicin, was weighed into a tube and 5 mL of water was added. Further, suspensions OS-10 and OS-11 were prepared by addition of 2.5 mg and 5.0 mg respectively of xanthan gum to a suspension with composition OS-5. Each tube was vigorously shaken for about 1 min. In none of the suspensions foaming was observed.
Each of the granulate compositions OS-1, OS-2 and OS-3 was weighed into a tube, water was added and the tubes were vigorously shaken for about 1 minute. […]

[2] = Storage stability of fidaxomicin with a sugar in a ratio of 1:9; type: physicochemical; settings: glass bottle
Protocol: Fidaxomicin and a sugar, selected from the group consisting of D-mannitol, erythritol, isomalt and trehalose, in a ratio of 1:9, were transferred into a glass bottle and stored at 5° C. during 10 days, 70° C. during 9 days and 40° C./75% RH during 1 month, respectively. In the presence of each sugar the degradation of fidaxomicin increased when stored at 70° C. during 9 days. […] (see Table 7).

[3] = low solubility, low permeability; cited from earlier work
[4] = oral administration; cited from earlier work

## CCc1c(Cl)c(O)c(Cl)c(O)c1C(=O)O[C@H]1[C@H](O)[C@H](OC)[C@H](OC/C2=C\C=C\C[C@H](O)/C(C)=C/[C@H](CC)[C@@H](O[C@@H]3OC(C)(C)[C@@H](OC(=O)C(C)C)[C@H](O)[C@@H]3O)/C(C)=C/C(C)=C/C[C@@H]([C@@H](C)O)OC2=O)O[C@@H]1C [fidaxomicin, 3-[[[6-deoxy-4-O-(3,5-dichloro-2-ethyl-4,6-dihydroxybenzoyl)-2-O-methyl-β-D-mannopyranosyl]oxy]methyl]-12(R)-[[6-deoxy-5-C-methyl-4-O-(2-methyl-1-oxopropyl)-β-D-lyxo-hexopyranosyl]oxy]-11(S)-ethyl-8(S)-hydroxy-18(S)-(1(R)-hydroxyethyl)-9,13,15-trimethyloxacyclooctadeca-3,5,9,13,15-pentaen-2-one]
[1]
  foaming property on contact with water: intrinsically foaming property
[2]; 5° C./10 days
  Total related substances (%): 1.91%
[2]; 70° C./9 days
  Total related substances (%): 5.10%
[3]
  BCS class: BCS Class IV
[4]
  absorption from the intestinal tract: poorly absorbed
